Counter-ions that a name gives are not always drawn.
How the values were obtained:
[1] = system: human lung cancer cell line NCI-H460; assay: Cell proliferation inhibitory activity (Cell Counting Kit-8), lung cancer NCI-H460; format: cell-based; conditions: 96 h, NCI-H460, 4 days, read-out: Cell proliferation inhibitory activity (% Inhibition at 2.5 μM) Non-small cell lung cancer (NCI-H460)
Method: (§1) The cell proliferation inhibitory activity was measured for compounds of the present invention represented by formula (I). Cancer cell proliferation inhibitory activity was measured using the Cell Counting Kit-8 (Dojindo). 2000 cells each of human colon cancer cell line HCT116 purchased from the American Type Culture Collection (Virginia, USA) were seeded into each well of a 96-well culture plate followed by the addition of a predetermined concentration of the compounds and cultivating in a CO2environment for 4 days at 37° C. On the fourth day of cultivating, the Cell Counting Kit-8 solution was added and absorbance (measuring wavelength: 450 nm, reference wavelength: 615 nm) was measured in accordance with the protocol provided with the kit.
(§2) Cancer cell proliferation inhibitory activity was also measured for human lung cancer cell line NCI-H460 and human prostate cancer cell line PC3 purchased from the American Type Culture Collection. 1000 and 3000 cells of NCI-H460 and PC3, respectively, were seeded into each well of a 96-well culture plate followed by testing in the same manner as the human colon cancer cell line and calculating the percentage of cell proliferation inhibition at 2.5 μM.

[2] = target: human PI3K(p110α/p85α) (Homo sapiens, UniProt P42336); assay: Measurement of PI3K inhibitory activity (AlphaScreen GST Detection Kit); format: biochemical; conditions: 10 μM ATP, 4 μM PI(4,5)P2, read-out: Enzyme inhibitory activity (IC50, μM) PI3K α
Sequence of human PI3K(p110α/p85α) (P42336 whole entry): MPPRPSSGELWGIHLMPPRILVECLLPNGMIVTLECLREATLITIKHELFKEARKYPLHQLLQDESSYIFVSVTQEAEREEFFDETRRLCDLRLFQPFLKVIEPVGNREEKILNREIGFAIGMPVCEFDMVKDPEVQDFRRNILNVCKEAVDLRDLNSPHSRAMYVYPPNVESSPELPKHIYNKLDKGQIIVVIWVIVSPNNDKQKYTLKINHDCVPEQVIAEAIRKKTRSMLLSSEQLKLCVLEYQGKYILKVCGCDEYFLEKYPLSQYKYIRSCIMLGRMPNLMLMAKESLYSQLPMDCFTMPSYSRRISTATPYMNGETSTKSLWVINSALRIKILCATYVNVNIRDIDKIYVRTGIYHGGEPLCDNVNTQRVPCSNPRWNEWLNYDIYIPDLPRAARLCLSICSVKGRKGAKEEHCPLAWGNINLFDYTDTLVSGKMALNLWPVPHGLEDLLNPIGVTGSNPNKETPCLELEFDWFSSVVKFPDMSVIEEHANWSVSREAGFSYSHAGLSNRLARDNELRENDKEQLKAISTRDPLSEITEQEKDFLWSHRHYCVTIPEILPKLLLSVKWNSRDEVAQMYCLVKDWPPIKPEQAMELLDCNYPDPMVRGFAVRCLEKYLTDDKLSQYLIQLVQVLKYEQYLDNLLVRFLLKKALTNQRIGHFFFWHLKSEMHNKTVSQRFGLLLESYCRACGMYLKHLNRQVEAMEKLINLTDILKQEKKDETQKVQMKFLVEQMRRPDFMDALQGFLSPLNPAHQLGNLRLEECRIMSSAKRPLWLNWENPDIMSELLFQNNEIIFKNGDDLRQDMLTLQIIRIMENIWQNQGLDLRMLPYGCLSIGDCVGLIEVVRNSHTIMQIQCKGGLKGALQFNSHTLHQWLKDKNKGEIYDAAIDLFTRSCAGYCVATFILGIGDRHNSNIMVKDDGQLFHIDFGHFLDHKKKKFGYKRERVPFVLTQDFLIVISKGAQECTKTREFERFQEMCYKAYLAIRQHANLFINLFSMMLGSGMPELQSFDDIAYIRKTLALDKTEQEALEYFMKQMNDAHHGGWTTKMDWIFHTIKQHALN
Sequence of human PI3K(p110α/p85α) (P27986 whole entry partner): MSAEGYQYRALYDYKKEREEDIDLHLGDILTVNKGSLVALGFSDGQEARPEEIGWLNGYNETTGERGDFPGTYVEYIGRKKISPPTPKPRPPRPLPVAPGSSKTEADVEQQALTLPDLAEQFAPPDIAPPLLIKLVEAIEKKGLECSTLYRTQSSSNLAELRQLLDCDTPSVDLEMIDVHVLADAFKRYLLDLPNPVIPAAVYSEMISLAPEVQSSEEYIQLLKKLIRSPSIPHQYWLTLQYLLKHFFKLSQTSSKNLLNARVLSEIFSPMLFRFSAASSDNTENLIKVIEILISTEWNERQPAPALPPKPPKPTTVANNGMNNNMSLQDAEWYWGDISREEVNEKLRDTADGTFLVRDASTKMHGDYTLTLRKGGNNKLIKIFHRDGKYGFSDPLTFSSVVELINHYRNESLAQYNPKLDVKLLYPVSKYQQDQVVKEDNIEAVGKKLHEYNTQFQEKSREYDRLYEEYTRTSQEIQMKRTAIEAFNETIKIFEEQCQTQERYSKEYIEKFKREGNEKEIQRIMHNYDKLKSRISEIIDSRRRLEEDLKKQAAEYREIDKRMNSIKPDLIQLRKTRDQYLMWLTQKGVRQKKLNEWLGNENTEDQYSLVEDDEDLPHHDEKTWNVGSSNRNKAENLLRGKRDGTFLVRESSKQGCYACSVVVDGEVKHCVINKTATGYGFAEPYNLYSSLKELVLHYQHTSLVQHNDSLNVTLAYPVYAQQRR
Method: The inhibitory activity of compounds of the present invention represented by formula (I) were measured with human PI3K(p110α/p85α) prepared in a baculovirus expression system using the AlphaScreen GST Detection Kit (Perkin Elmer, Inc.). A predetermined concentration of the compound dissolved in dimethylsulfoxide (DMSO) and PI3K were mixed in a 384-well assay plate and after allowing to stand for 20 minutes at room temperature, 4 μM PI(4,5)P2 (Echelon Corporation) and 10 μM ATP (5 mM Hepes, pH 7.5, 2.5 mM MgCl2) were added to initiate the reaction. After reacting for 15 minutes at 37° C., GST-GRP1 expressed and purified from Escherichia coli, Anti-GST Acceptor Beads (Perkin Elmer, Inc.), Streptavidin Donor Beads (Perkin Elmer, Inc.) and biotin-PI(3,4,5) P3 (Echelon Corporation) (10 mM Tris-HCl pH 7.4, 150 mM NaCl, 7.5 mM EDTA, 1 mM DTT, 0.1% Tween 20) were added, and after allowing to stand for 1 hour at room temperature, light at 520 to 620 nm emitted as a result of exciting with light at 680 nm was measured with the Envision measuring instrument (Perkin Elmer, Inc.).
Test Example 1 described above can be performed according to “Analytical Biochemistry, 2003, 313, 234-245; Alexander Gray et al”.

[3] = system: human colon cancer cell line HCT116; assay: Cell proliferation inhibitory activity (Cell Counting Kit-8), colon cancer HCT116; format: cell-based; conditions: HCT-116, 96 h, HCT116, 4 days
Method: as §1

[4] = system: human prostate cancer cell line PC3; assay: Cell proliferation inhibitory activity (Cell Counting Kit-8), prostate cancer PC3; format: cell-based; conditions: 96 h, PC3, 4 days
Method: as §1, §2

Compound | inhibition at 2.5 µM [1] [%] | IC50 [2] [µM] | inhibition at 2.5 µM [3] [%] | inhibition at 2.5 µM [4] [%]
Oc1cccc(-c2nc(N3CCOCC3)nc3c2CCN3c2ccncc2)c1 [Example A-09, 3-(2-Morpholin-4-yl-7-pyridin-4-yl-6,7-dihydro-5H-pyrrolo[2,3-d]pyrimidin-4-yl)-phenol] | 84 | 0.009 | 83 | 96
Oc1cccc(-c2nc(N3CCOCC3)nc3c2CCN3c2ccc3[nH]cnc3c2)c1 [Example A-14, 3-[7-(1H-benzimidazol-5-yl)-2-morpholin-4-yl-6,7-dihydro-5H-pyrrolo[2,3-d]pyrimidin-4-yl]-phenol] | 95 | 0.08 | 76 | 98
Oc1cc(-c2nc(N3CCOCC3)nc3c2CCN3c2ccncc2)ccc1F [Example A-32, 2-Fluoro-5-(2-morpholin-4-yl-7-pyridin-4-yl-6,7-dihydro-5H-pyrrolo[2,3-d]pyrimidin-4-yl)-phenol trifluoroacetic acid salt] | 79 | 0.24 | 81 | 81
Oc1cccc(-c2nc(N3CCOCC3)nc3c2CCN3c2ccnc(N3CCOCC3)c2)c1 [Example A-44, 3-[2-Morpholin-4-yl-7-(2-morpholin-4-yl-pyridin-4-yl)-6,7-dihydro-5H-pyrrolo[2,3-d]pyrimidin-4-yl]-phenol] | 82 | 0.05 | 69 | 79
CS(=O)(=O)Nc1cccc(N2CCc3c(-c4cccc(O)c4)nc(N4CCOCC4)nc32)c1 [Example A-48, N-{3-[4-(3-hydroxy-phenyl)-2-morpholin-4-yl-5,6-dihydro-pyrrolo[2,3-d]pyrimidin-7-yl]-phenyl}-methane sulfonamide trifluoroacetic acid salt] | 67 | 0.02 | 55 | 62
Nc1ncc(-c2nc(N3CCOCC3)nc3c2CCN3c2cccnc2)cn1 [Example B-02, 5-(2-Morpholin-4-yl-7-pyridin-3-yl-6,7-dihydro-5H-pyrrolo[2,3-d]pyrimidin-4-yl)-pyrimidin-2-ylamine] | 95 | 0.03 | 87 | 96
Nc1ccc(-c2nc(N3CCOCC3)nc3c2CCN3c2ccncc2)cn1 [Example B-03, 5-(2-Morpholin-4-yl-7-pyridin-4-yl-6,7-dihydro-5H-pyrrolo[2,3-d]pyrimidin-4-yl)-pyridin-2-ylamine] | 97 | 0.24 | 100 | 95
COc1ncc(-c2nc(N3CCOCC3)nc3c2CCN3c2cccnc2)c(OC)n1 [Example B-09, 4-(2,4-Dimethoxy-pyrimidin-5-yl)-2-morpholin-4-yl-7-pyridin-3-yl-6,7-dihydro-5H-pyrrolo[2,3-d]pyrimidine] | 67 | 0.26 | 45 | 56
c1cc(N2CCc3c(-c4ccc5[nH]cnc5c4)nc(N4CCOCC4)nc32)ccn1 [Example B-22, 4-(1H-benzimidazol-5-yl)-2-morpholin-4-yl-7-pyridin-4-yl-6,7-dihydro-5H-pyrrolo[2,3-d]pyrimidine] | 72 | 0.3 | 71 | 22
NCc1ccc(-c2nc(N3CCOCC3)nc3c2CCN3c2ccncc2)cc1 [Example B-32, 4-(2-Morpholin-4-yl-7-pyridin-4-yl-6,7-dihydro-5H-pyrrolo[2,3-d]pyrimidin-4-yl)-benzylamine hydrochloride] | 67 | 0.47 | 78 | 29
OCc1cc(-c2nc(N3CCOCC3)nc3c2CCN3c2ccncc2)ccc1F [Example B-35, [2-Fluoro-5-(2-morpholin-4-yl-7-pyridin-4-yl-6,7-dihydro-5H-pyrrolo[2,3-d]pyrimidin-4-yl)-phenyl]-methanol] | 71 | 0.87 | 78 | 61
Nc1ccc(-c2nc(N3CCOCC3)nc3c2CCN3c2ccncc2)nc1 [Example B-55, 6-(2-Morpholin-4-yl-7-pyridin-4-yl-6,7-dihydro-5H-pyrrolo[2,3-d]pyrimidin-4-yl)-pyridin-3-ylamine] | 58 | 0.34 | 79 | 47
CNC(=S)N1CCc2c(-c3cccc(O)c3)nc(N3CCOCC3)nc21 [Example C-55, 4-(3-Hydroxy-phenyl)-2-morpholin-4-yl-5,6-dihydro-pyrrolo[2,3-d]pyrimidine-7-carbothioic acid methylamide trifluoroacetic acid salt] | 89 | 0.05 | 72 | 87
CC(=O)N1CCc2c(-c3cnc(N)nc3)nc(N3CCOCC3)nc21 [Example D-01, 1-[4-(2-Amino-pyrimidin-5-yl)-2-morpholin-4-yl-5,6-dihydro-pyrrolo[2,3-d]pyrimidin-7-yl]-ethanone] | 92 | 0.04 | 83 | 89
CS(=O)(=O)N1CCc2c(-c3cnc(N)nc3)nc(N3CCOCC3)nc21 [Example D-02, 5-(7-Methanesulfonyl-2-morpholin-4-yl-6,7-dihydro-5H-pyrrolo[2,3-d]pyrimidin-4-yl)-pyrimidin-2-ylamine] | 83 | – | 81 | 87
CCNC(=O)N1CCc2c(-c3cnc(N)nc3)nc(N3CCOCC3)nc21 [Example D-03, 4-(2-Amino-pyrimidin-5-yl)-2-morpholin-4-yl-5,6-dihydro-pyrrolo[2,3-d]pyrimidine-7-carboxylic acid ethylamide] | 92 | 0.02 | 92 | 88
Nc1ncc(-c2nc(N3CCOCC3)nc3c2CCN3c2cc(C(=O)N3CCOCC3)ccc2F)cn1 [Example D-16, {3-[4-(2-Amino-pyrimidin-5-yl)-2-morpholin-4-yl-5,6-dihydro-pyrrolo[2,3-d]pyrimidin-7-yl]-4-fluoro-phenyl}-morpholin-4-yl-methanone] | 76 | 0.23 | 74 | 73
CCN1CCN(C(=O)c2ccc(C)c(NC(=S)N3CCc4c(-c5cnc(N)nc5)nc(N5CCOCC5)nc43)c2)CC1 [Example D-17, 4-(2-Amino-pyrimidin-5-yl)-2-morpholin-4-yl-5,6-dihydro-pyrrolo[2,3-d]pyrimidine-7-carbothioic acid [5-(4-ethyl-piperazine-1-carbonyl)-2-methyl-phenyl]-amide] | 97 | 0.024 | 96 | 93
CCN1CCN(c2cc(F)c(NC(=O)N3CCc4c(-c5cnc(N)nc5)nc(N5CCOCC5)nc43)c(F)c2)CC1 [Example D-18, 4-(2-Amino-pyrimidin-5-yl)-2-morpholin-4-yl-5,6-dihydro-pyrrolo[2,3-d]pyrimidine-7-carboxylic acid [4-(4-ethyl-piperazin-1-yl)-2,6-difluoro-phenyl]-amide] | 102 | 0.022 | 100 | 93
Nc1ncc(-c2nc(N3CCOCC3)nc3c2CCN3c2ccc(C(=O)NCc3cccnc3)cc2)cn1 [Example D-19, 4-[4-(2-Amino-pyrimidin-5-yl)-2-morpholin-4-yl-5,6-dihydro-pyrrolo[2,3-d]pyrimidin-7-yl]-N-pyridin-3-ylmethyl-benzamide] | 97 | 0.06 | 73 | 102
Nc1ncc(-c2nc(N3CCOCC3)nc3c2CCN3c2ccc(CN3CCN(CCCCF)CC3)cc2)cn1 [Example D-330, 5-(7-{4-[4-(4-fluorobutyl)-piperazin-1-ylmethyl]-phenyl}-2-morpholin-4-yl-6,7-dihydro-5H-pyrrolo[2,3-d]pyrimidin-4-yl)-pyrimidin-2-ylamine] | -13 | – | 25 | 0

Reference: patent US8022205B2, “Pyrimidine derivatives as PI3K inhibitor and use thereof” (Chugai Seiyaku Kabushiki Kaisha, priority 2006, dated 2011)
